# How the values were obtained:
# [1] = target: T1, TRPV4 (transient receptor potential vanilloid 4) (Homo sapiens, UniProt Q9HBA0); assay: whole-cell patch clamp and Fura-2 Ca2+ imaging in human trabecular meshwork cells (endogenous channel), agonist; assay type: cell-based
# [2] = target: T1, TRPV4 (transient receptor potential vanilloid 4); assay: inhibition of GSK101 ([…])-induced Ca2+ signals in human trabecular meshwork cells (Fura-2); putative prodrug analog of HC-067047; assay type: cell-based
# T1 sequence (Q9HBA0 whole entry): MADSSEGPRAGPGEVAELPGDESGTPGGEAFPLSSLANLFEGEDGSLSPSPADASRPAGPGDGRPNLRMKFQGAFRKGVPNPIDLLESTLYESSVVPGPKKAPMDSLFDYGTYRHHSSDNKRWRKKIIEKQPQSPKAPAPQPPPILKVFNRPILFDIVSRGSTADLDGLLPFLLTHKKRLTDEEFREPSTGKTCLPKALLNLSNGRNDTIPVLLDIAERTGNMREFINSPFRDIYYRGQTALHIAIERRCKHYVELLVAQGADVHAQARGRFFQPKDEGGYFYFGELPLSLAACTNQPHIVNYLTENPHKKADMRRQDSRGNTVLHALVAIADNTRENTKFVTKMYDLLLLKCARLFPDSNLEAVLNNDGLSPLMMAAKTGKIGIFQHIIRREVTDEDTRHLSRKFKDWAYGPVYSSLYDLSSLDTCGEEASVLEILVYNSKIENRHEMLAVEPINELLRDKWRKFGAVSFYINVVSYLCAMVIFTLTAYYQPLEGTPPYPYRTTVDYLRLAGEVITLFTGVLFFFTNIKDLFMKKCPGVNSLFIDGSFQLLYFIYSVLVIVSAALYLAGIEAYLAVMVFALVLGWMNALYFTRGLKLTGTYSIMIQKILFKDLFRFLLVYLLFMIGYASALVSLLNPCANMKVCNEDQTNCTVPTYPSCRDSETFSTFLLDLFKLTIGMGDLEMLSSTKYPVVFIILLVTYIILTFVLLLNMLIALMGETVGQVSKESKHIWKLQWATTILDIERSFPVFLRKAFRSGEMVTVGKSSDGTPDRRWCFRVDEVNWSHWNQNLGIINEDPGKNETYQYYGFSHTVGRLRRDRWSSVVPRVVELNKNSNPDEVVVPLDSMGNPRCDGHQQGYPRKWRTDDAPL
compound,measurement,setting,value
"CC(C)C[C@H](NC(=O)c1cc2ccccc2s1)C(=O)N1CCN(C(=O)[C@H](CO)NS(=O)(=O)c2ccc(Cl)cc2Cl)CC1 [GSK101, GSK1016790A]",EC50,[1],~0.025 µM
"Cc1c(C(=O)Nc2cccc(C(=O)OC(C)C)c2)cc(-c2ccccc2)n1CCCN1CCOCC1 [YX-02, isopropyl 3-(2-methyl-1-(3-morpholinopropyl)-5-phenyl-1H-pyrrole-3-carboxamido)benzoate]",IC50,[2],0.74 ± 0.04 µM
